# Results taken from the OPERA property sets (Mansouri et al. 2018).
# Conditions: not given
SMILES,melting point [°C],boiling point [°C],ready biodegradability,log10 vapour pressure (mmHg),log10 biodegradation half-life (days),log10 Henry constant (atm·m³/mol),log10 Koc (L/kg),solubility [µM],log10 Koa
CC1=C(C)C(=O)c2ccccc2C1=O,127,–,–,–,–,–,–,–,–
CC(=O)C(C)O (stereo not drawn),15,143,–,–,–,–,–,–,–
CC1=CC(C)(C)Nc2ccccc21,26.5,260,not readily biodegradable,–,–,–,–,–,–
COc1ccn(C)c(=O)c1C#N,202,–,–,–,–,–,–,–,–
Cc1ncc(CO)c(CO)c1O,160,–,–,–,–,–,–,–,–
CC(C)=CCC/C(C)=C/C=C/C(C)=C/C=C/C(C)=C/C=C/C=C(C)/C=C/C=C(C)/C=C/C1=C(C)CCCC1(C)C,178,–,–,–,–,–,–,–,–
Cc1ccccc1C(=O)Cl,–,214,–,–,–,–,–,–,–
C=CCC(C(C)=O)C(C)=O,–,199,–,–,–,–,–,–,–
O=[N+]([O-])c1cccc(-c2ccccc2)c1,62,–,–,–,–,–,–,–,–
COc1cc(Cc2cnc(N)nc2N)cc(OC)c1Br,226,–,–,–,–,–,–,–,–
C[C@@H](N)c1ccccc1,–,–,not readily biodegradable,–,–,–,–,–,–
C=CCCCc1ccccc1,–,201,–,–,–,–,–,–,–
CC(C)CNC(=O)N1CCNC1=O,95.5,–,–,–,–,–,–,–,–
CNc1ccccc1C,–,208,not readily biodegradable,–,–,–,–,–,–
Nc1cccc(N)n1,122,285,not readily biodegradable,–,–,–,–,–,–
FC(C(F)(F)F)C(F)(F)F,-127,-17.3,–,3.53,–,–,–,–,–
OC1CCCCCCC1,25.1,–,–,–,–,–,–,–,–
O=C(O)C(Cl)Br (racemic),31.5,215,–,–,–,–,–,–,–
N=C(N)NC(=N)N,136,–,–,–,–,–,–,–,–
FC1=C(F)C(F)(F)C1(F)F,-60,5.5,–,–,–,–,–,–,–
CC(C)(I)I,–,173,–,–,–,–,–,–,–
CC(=O)CC(=O)Nc1ccccc1C,105,–,readily biodegradable,–,–,–,–,–,–
O=C1CC(=O)NC(=O)N1,248,–,readily biodegradable,-7.82,–,–,–,–,–
CCCCCC(=O)OCCCC,-64.3,208,–,–,–,–,–,–,–
CC(C)(C)CC(C)(C)c1ccc(O)cc1,84.5,–,not readily biodegradable,-3.32,–,–,–,–,–
Cc1cccc(C(C)C)c1,-63.7,175,not readily biodegradable,0.235,–,–,–,–,–

SMILES,melting point [°C],boiling point [°C],ready biodegradability,log10 vapour pressure (mmHg),log10 biodegradation half-life (days),log10 Henry constant (atm·m³/mol),log10 Koc (L/kg),solubility [µM],log10 Koa
O=C(O)c1ccc(O)c(O)c1,–,–,readily biodegradable,–,–,–,–,–,–
O=C(O)CCCc1ccccc1,52,290,–,–,–,–,–,–,–
COC(=O)C(F)(F)C(F)(F)C(F)(F)C(F)(F)C(F)(F)C(F)(F)C(F)(F)F,–,158,–,–,–,–,–,–,–
CCCC(=O)CC(C)C,–,155,–,–,–,–,–,–,–
C=COCCCCCCCCCCCCCCCCCC,30,–,–,–,–,–,–,–,–
Clc1ccc(OCOCC#CI)cc1,–,–,not readily biodegradable,–,–,–,–,–,–
CCCCOC=O,-91.5,106,–,1.46,–,–,–,–,–
CC(=O)[O-].[Na+],324,–,–,–,–,–,–,–,–
C=COC(C)(C)C,-112,75,–,–,–,–,–,–,–
CCOC(=O)c1ccccc1C,–,227,–,–,–,–,–,–,–
Clc1ccc2c(c1)C(c1ccccc1)=NCc1nncn1-2,228,–,–,–,–,–,–,–,–
Cc1cc2ccccc2cn1,68,249,–,–,–,–,–,–,–
C1CCN(SSN2CCCCC2)CC1,64.2,–,–,–,–,–,–,–,–
CCOC(=O)c1cccc(C)c1,–,234,–,–,–,–,–,–,–
CC(C)C(C)(C)C,-25,80.8,–,2.01,0.778,–,–,–,–
CCCC(=O)N(C)C,-40,186,–,–,–,–,–,–,–
"CC1(C)[C@H](C(=O)O[C@H](C#N)c2cccc(Oc3ccccc3)c2)[C@@H]1/C=C(\Cl)C(F)(F)F (single isomer, unassigned)",49.2,–,–,–,–,–,–,–,–
COc1ccc(C(=O)O)cc1O,252,–,–,–,–,–,–,–,–
C=C(C)c1ccccc1C,–,175,–,–,–,–,–,–,–
C=Cc1cccc(CC)c1,-101,190,not readily biodegradable,-0.0947,–,–,–,–,–
FC(F)OCC(F)(F)F,–,29.3,–,2.81,–,–,–,–,–
ClSC(Cl)(Cl)Cl,–,148,–,0.477,–,–,–,–,–
O=P(O)(O)OCC(O)CO (stereo not drawn),-25,–,–,–,–,–,–,–,–
O=C(CCNNC(=O)c1ccncc1)NCc1ccccc1,152,–,–,–,–,–,–,–,–
CS(=O)(=O)Cl,–,162,–,–,–,–,–,–,–
COc1ccc(C(=CC(=O)N2CCOCC2)c2ccc(Cl)cc2)cc1OC,148,–,–,-8.13,–,–,–,–,–

SMILES,melting point [°C],boiling point [°C],ready biodegradability,log10 vapour pressure (mmHg),log10 biodegradation half-life (days),log10 Henry constant (atm·m³/mol),log10 Koc (L/kg),solubility [µM],log10 Koa
CC[C@H]1OC(=O)[C@H](C)[C@@H](O[C@H]2C[C@@](C)(OC)[C@@H](O)[C@H](C)O2)[C@H](C)[C@@H](O[C@@H]2O[C@H](C)C[C@H](N(C)C)[C@H]2O)[C@](C)(O)C[C@@H](C)CN(C)[C@H](C)[C@@H](O)[C@]1(C)O,114,–,–,–,–,–,–,–,–
CCCCSP(=O)(SCCCC)SCCCC,–,–,readily biodegradable,-5.28,–,-6.53,3.7,–,–
C#CC(C)=CC,–,66.5,–,–,–,–,–,–,–
CN1CN(C)CN(C)C1,-27,163,–,–,–,–,–,–,–
CC1(C)C(=O)[C@@]2(C)CC[C@@H]1C2,–,193,–,–,–,–,–,–,–
OC1c2ccccc2Oc2ccccc21,128,–,–,–,–,–,–,–,–
O=C(Nc1cc(Cl)cc(Cl)c1O)c1c(O)c(Cl)cc(Cl)c1Cl,210,–,–,–,–,–,–,–,–
CCCCCC1=CCCC1,-83,179,–,–,–,–,–,–,–
O=C1C=CC2(CCC23C=CC(=O)O3)O1 (stereo not drawn),158,–,–,–,–,–,–,–,–
CCSSCC,-102,154,–,0.631,–,-2.67,–,2450,–
Clc1cc(Cl)c(Cl)c(Oc2ccccc2)c1,–,–,–,-3.66,–,–,–,–,–
O=Cc1cccc(C(=O)O)c1,174,–,–,–,–,–,–,–,–
COc1c2c(cc3oc(=O)ccc13)OC(C)(C)C=C2,133,–,–,–,–,–,–,–,–
CCOC(=O)c1cnc2cc(OCC(C)C)c(OCC(C)C)cc2c1O,290,–,–,–,–,–,–,–,–
CCOC(=O)CCCCCCC(=O)OCC,5.9,283,–,–,–,–,–,–,–
CCc1cccc([N+](=O)[O-])c1,-37.9,242,–,–,–,–,–,–,–
O=C(O)CCCOc1ccc(Cl)cc1Cl,118,324,–,–,–,–,–,–,–
CCCCCCOc1ccccc1,-19,240,–,–,–,–,–,–,–
CC(C)=CCOc1c2occc2cc2ccc(=O)oc12,102,–,–,–,–,–,–,–,–
COc1cc(C#N)cc(OC)c1OC,93.8,–,–,–,–,–,–,–,–
O=C(CCl)OCCOC(=O)CCl,45.5,–,–,–,–,–,–,–,–
O=[N+]([O-])c1ccc(N=Nc2ccc(O)cc2O)cc1,200,–,–,–,–,–,–,–,–
COc1cc(NC(=O)C(N=Nc2ccc(-c3ccc(N=NC(C(C)=O)C(=O)Nc4cc(OC)c(Cl)cc4OC)c(Cl)c3)cc2Cl)C(C)=O)c(OC)cc1Cl (stereo not drawn),–,–,not readily biodegradable,–,–,–,–,–,–
CCCCCCCN,-18,156,–,0.438,–,–,–,–,–
COc1ccc2c(c1O)-c1c3c(cc4c1[C@H](C2)N(C)CC4)OCO3,200,–,–,–,–,–,–,–,–
CC1(C)C2CCC(C=O)C1C2 (stereo not drawn),–,220,–,–,–,–,–,–,–

SMILES,melting point [°C],boiling point [°C],ready biodegradability,log10 vapour pressure (mmHg),log10 biodegradation half-life (days),log10 Henry constant (atm·m³/mol),log10 Koc (L/kg),solubility [µM],log10 Koa
CCC(C)(O)CC(C)C (stereo not drawn),–,152,–,–,–,–,–,–,–
CCCCCCI,-74.2,181,readily biodegradable,0.147,–,-1.55,–,–,–
CC(C)OC(=O)c1ccco1,–,198,–,–,–,–,–,–,–
CCOC(=O)Cc1[nH]nc2ccc(Cl)cc12,77,–,–,–,–,–,–,–,–
Cc1ccc2c(c1N)C(=O)c1ccccc1C2=O,206,–,–,–,–,–,3.9,–,–
CCC[C@@H](O)CC,–,135,–,0.682,–,–,–,–,–
CCc1ccccc1,-94.9,136,–,0.982,0.903,-2.1,2.23,–,3.74
O=C(O)c1cc(Br)ccc1Br,157,–,–,–,–,–,–,–,–
C=CCN=C=O,–,88,–,–,–,–,–,–,–
COc1ccc(/C=C/NC=O)cc1,132,–,–,–,–,–,–,–,–
O=C1NCNC1(c1ccccc1)c1ccccc1,183,–,–,–,–,–,–,–,–
O=C(Oc1ccccc1)c1ccccc1C(=O)Oc1ccccc1,73,–,–,–,–,–,–,–,–
c1ccc2cc3c(cc2c1)-c1cccc2cccc-3c12,217,480,not readily biodegradable,-9.02,2.55,-6.23,4.34,–,–
CO[C@@H]1[C@H](OC(=O)/C=C/C=C/C=C/C=C/C(=O)O)CC[C@]2(CO2)[C@H]1[C@@]1(C)O[C@@H]1CC=C(C)C,194,–,–,–,–,–,–,–,–
CCCCNCCO,-2,199,–,–,–,–,–,–,–
CCCCCCCCCCCCCCCC(=O)OCCCC,16.9,–,–,–,–,–,–,–,–
CCCCCC[C@@H](O)C/C=C\CCCCCCCC(=O)O,5.5,–,–,–,–,–,–,–,–
O=C(Nc1ccc2ncccc2c1)Nc1ccc2ncccc2c1,262,–,–,–,–,–,–,–,–
CC(C)CC=O,-51,92.5,–,1.7,–,–,–,–,–
CCCCCCCCCCCC(N)=O,110,–,–,–,–,–,–,–,–
C1COCCOCCOCCO1,16,–,–,–,–,–,–,–,–
Nc1ccccc1Br,32,229,–,–,–,–,–,–,–
CCC(C)=NO,-29.5,152,not readily biodegradable,–,–,–,–,–,–
N=C(NCCCCCCNC(=N)NC(=N)Nc1ccc(Cl)cc1)NC(=N)Nc1ccc(Cl)cc1,134,–,–,–,–,–,–,–,–
COc1ccc(Cl)nn1,84.5,–,–,–,–,–,–,–,–
O=C(Nc1ccccc1)NC1CCCC1,–,–,–,–,–,–,1.93,–,–

SMILES,melting point [°C],boiling point [°C],ready biodegradability,log10 vapour pressure (mmHg),log10 biodegradation half-life (days),log10 Henry constant (atm·m³/mol),log10 Koc (L/kg),solubility [µM],log10 Koa
CCn1cc(C(=O)O)c(=O)c2cc(F)c(N3CCNCC3)cc21,228,–,–,–,–,–,–,–,–
O=[N+]([O-])c1cc(C2CCCCC2)c(O)c([N+](=O)[O-])c1,107,–,–,–,–,–,–,–,–
CN1CCC(N(Cc2ccccc2)c2ccccc2)CC1,115,–,–,–,–,–,–,–,–
c1ccc2c(c1)CCc1ccccc1N2,106,–,–,–,–,–,–,–,–
c1cnc2ncncc2n1,140,–,–,–,–,–,–,–,–
CCC(C)(C)CC,-135,86,–,1.92,0.954,–,–,–,–
C#CCC=C,–,42.5,–,–,–,–,–,–,–
Clc1ccc(-c2cc(Cl)c(Cl)cc2Cl)cc1Cl,–,–,–,-5.05,–,–,–,–,9.82
CC(C)(C)c1cc(C(C)(C)C)c(O)c(C(C)(C)C)c1,131,278,not readily biodegradable,-3.18,–,–,–,–,–
C1=CCc2ccccc2C1,25,212,–,–,–,–,–,–,–
CC[SiH2]CC,-134,57,–,–,–,–,–,–,–
OCc1cccc(CO)c1,57,–,–,–,–,–,–,–,–
O=C(OC(Cl)(Cl)Cl)C(Cl)(Cl)Cl,34,192,–,–,–,–,–,–,–
OCCN1CCN(CCCN2c3ccccc3C=Cc3ccccc32)CC1,100,–,–,–,–,–,–,–,–
CCCCCC(CO)CCC (stereo not drawn),–,218,–,–,–,–,–,–,–
O=C1C=CCC1,–,136,–,–,–,–,–,–,–
O=[N+]([O-])c1ccccc1-c1ccccc1,37.2,320,–,–,–,–,–,–,–
CN(C)CCN(C)CCN(C)C,–,–,not readily biodegradable,–,–,–,–,–,–
CCN(CC)CC(O)CN (stereo not drawn),–,223,–,–,–,–,–,–,–
C=C(Cl)CO,–,–,readily biodegradable,–,–,–,–,–,–
CN(CCCN1c2ccccc2CCc2ccccc21)CC(=O)c1ccc(Cl)cc1,105,–,–,–,–,–,–,–,–
N#C/C(=N\OCC1OCCO1)c1ccccc1,77.7,–,–,-5.4,–,–,–,–,–

# Same assay, conditions: fish
SMILES,log10 BCF,log10 biotransformation half-life (days)
CNc1ccccc1C,0.95,-0.74
CC(C)(C)CC(C)(C)c1ccc(O)cc1,2.46,-0.04
Cc1cccc(C(C)C)c1,2.73,0.07
c1ccc2cc3c(cc2c1)-c1cccc2cccc-3c12,–,-0.06
CCC(C)=NO,0.7,-1.33
Clc1ccc(-c2cc(Cl)c(Cl)cc2Cl)cc1Cl,–,2.19
CC(C)(C)c1cc(C(C)(C)C)c(O)c(C(C)(C)C)c1,4.14,1.81
